According to patent publication US20200397796A1, “METHODS OF TREATMENT OF CANCER COMPRISING CHK1 INHIBITORS” (SIERRA ONCOLOGY, INC., priority 2018, published 2020):

Assays:
[1] = tested on: HGSOC PDX models harboring CCNE1 amplifications accompanied by TP53 mutations; experiment: In vivo efficacy, HGSOC PDX models with CCNE1 amplifications; design: species or system mouse; details: single agent; several models; data not shown
Method: (§1) A program of in vivo efficacy studies was performed to assess the activity of SRA737 in combination with genotoxic chemotherapy and targeted agents, and as monotherapy.
(§2) One of these models also carried a MYCN amplification. A fourth HGSOC PDX model with partial resistance to PARPi was also sensitive to high dose SRA737 monotherapy.

[2] = target: CYP 1A2 (Homo sapiens, UniProt P05177); experiment: CYP inhibition, 1A2; type: in vitro ADME; details: highest concentration investigated
[3] = tested on: LL/2 (lung cancer); experiment: In vivo efficacy, LL/2 syngeneic model; design: species or system mouse; details: data not shown
Method: as §1, §2

[4] = tested on: HT29 human colon cancer; experiment: In vivo efficacy, HT29 xenograft model; design: species or system mouse; details: data not shown
Method: as §1, §2

[5] = tested on: rat hepatocytes; experiment: Stability in cryopreserved hepatocytes, rat; type: in vitro ADME; details: 10 μM, after 4 hours of incubation
Method: The formation of SRA737-related metabolites was determined in cryopreserved hepatocytes from human, mouse, rat, dog, minipig and monkey samples after incubation with SRA737 at a nominal concentration of 10 μM for up to 4 hours. […] In the human hepatocyte preparation, approximately 67% of the parent remained after 4 hours of incubation compared to 75% and 7% in the rat and minipig preparations, respectively. Eight human SRA737 metabolites were observed. All SRA737 metabolites formed by human hepatocytes were also formed by monkey hepatocytes. Six metabolites were present at equal or greater abundance in the monkey.

[6] = Plasma protein binding, ultracentrifugation, minipig; type: in vitro ADME; details: for Percentage Bound / Percentage Free: Minipig plasma
Method: The PK of SRA737 have been determined in the mouse, rat, dog and monkey following oral and IV administration (Table 3). […] An acceptable terminal elimination t1/2 was also observed in each species. […] The plasma protein binding of SRA737 at 1 and 10 μM was examined in mouse, minipig, monkey and human plasma using ultracentrifugation and in dog plasma (10 μM) using rapid equilibrium dialysis.

[7] = target: CYP 2A6 (Homo sapiens, UniProt P11509); experiment: CYP inhibition, 2A6; type: in vitro ADME; details: highest concentration investigated
[8] = target: CYP 3A4 (Homo sapiens, UniProt P08684); experiment: CYP inhibition, 3A4; type: in vitro ADME; details: highest concentration investigated
[9] = Phase 1 clinical trial, SRA737 monotherapy dose escalation; type: in vivo, human; details: for AUC(0-t): AUC0-24
Method: A Phase 1 clinical trial was conducted in ‘all comers,’ i.e. no genetic selection was performed, to establish safety, tolerability and pharmacokinetics (“Dose Escalation Phase”). Cohorts consisting initially of a single subject received escalating doses of SRA737, starting in Cohort 1 with 20 mg/day administered orally on a continuous daily dosing schedule in 28 day cycles. the dose was escalated until the maximum tolerated dose (MTD) was identified.
In the Dose Escalation Phase, 18 subjects received SRA737 in 9 dose level cohorts, from 20 to 1300 mg QD; median treatment duration 62.5 days (range 1 to 226). […] Two of 3 subjects experienced DLTs at the 1300 mg once daily dose, each being an inability to receive 75% of the planned SRA737 dose due to GI intolerability, with the individual GI effects being low grade. […] A cohort receiving 500 mg twice daily was added to determine if a twice daily dosing schedule can improve GI tolerability, given the half-life of SRA737 is approximately 10 hours. One of 6 subjects experienced DLTs in the 500 mg twice daily cohort; this was an inability to receive 75% of the planned SRA737 dose due to grade 4 thrombocytopenia with grade 3 neutropenia and anemia.
Cmin was calculated at 1000 mg QD (411 ng/mL) and exceeded that determined in preclinical models to be effective. Doses≥300 mg QD also exceeded the preclinical models to be effective.

[10] = tested on: Eμ-Myc model of B-cell lymphoma; experiment: In vivo efficacy, Eμ-Myc model; design: species or system mouse; details: data not shown
Method: as §1, §2

[11] = tested on: Renca (renal cancer); experiment: In vivo efficacy, Renca syngeneic model; design: species or system mouse; details: data not shown
Method: as §1, §2

[12] = tested on: SW620 mouse colon cancer; experiment: In vivo efficacy, SW620 xenograft model; details: in combination with standard-dose gemcitabine; data not shown
Method: as §1, §2

Sequence of CYP 3A4 (P08684 whole entry): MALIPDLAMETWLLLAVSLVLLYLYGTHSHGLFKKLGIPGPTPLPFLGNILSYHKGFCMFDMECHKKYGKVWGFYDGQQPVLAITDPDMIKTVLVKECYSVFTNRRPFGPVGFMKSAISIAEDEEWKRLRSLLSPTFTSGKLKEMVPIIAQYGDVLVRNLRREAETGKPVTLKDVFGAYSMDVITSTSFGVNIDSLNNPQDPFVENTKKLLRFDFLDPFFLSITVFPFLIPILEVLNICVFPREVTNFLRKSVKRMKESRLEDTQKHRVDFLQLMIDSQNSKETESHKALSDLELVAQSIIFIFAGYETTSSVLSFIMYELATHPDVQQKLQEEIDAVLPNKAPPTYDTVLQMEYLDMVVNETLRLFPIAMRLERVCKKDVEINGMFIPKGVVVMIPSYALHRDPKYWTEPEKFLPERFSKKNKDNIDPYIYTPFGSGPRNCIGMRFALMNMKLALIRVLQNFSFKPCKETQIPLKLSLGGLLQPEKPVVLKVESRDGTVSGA
Sequence of CYP 2A6 (P11509 whole entry): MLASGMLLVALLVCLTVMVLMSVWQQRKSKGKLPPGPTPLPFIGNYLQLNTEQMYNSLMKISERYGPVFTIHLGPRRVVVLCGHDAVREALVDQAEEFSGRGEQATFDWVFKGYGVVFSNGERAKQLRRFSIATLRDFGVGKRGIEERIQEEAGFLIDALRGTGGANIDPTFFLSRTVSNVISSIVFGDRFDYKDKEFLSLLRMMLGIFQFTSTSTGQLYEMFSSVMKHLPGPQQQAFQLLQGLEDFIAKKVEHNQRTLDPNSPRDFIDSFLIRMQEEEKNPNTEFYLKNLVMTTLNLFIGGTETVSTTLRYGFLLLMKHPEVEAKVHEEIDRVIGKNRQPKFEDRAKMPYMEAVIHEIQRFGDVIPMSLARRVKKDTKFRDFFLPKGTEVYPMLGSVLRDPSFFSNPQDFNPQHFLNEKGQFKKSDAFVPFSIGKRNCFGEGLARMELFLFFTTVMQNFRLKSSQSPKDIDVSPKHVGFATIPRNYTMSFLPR
Sequence of CYP 1A2 (P05177 whole entry): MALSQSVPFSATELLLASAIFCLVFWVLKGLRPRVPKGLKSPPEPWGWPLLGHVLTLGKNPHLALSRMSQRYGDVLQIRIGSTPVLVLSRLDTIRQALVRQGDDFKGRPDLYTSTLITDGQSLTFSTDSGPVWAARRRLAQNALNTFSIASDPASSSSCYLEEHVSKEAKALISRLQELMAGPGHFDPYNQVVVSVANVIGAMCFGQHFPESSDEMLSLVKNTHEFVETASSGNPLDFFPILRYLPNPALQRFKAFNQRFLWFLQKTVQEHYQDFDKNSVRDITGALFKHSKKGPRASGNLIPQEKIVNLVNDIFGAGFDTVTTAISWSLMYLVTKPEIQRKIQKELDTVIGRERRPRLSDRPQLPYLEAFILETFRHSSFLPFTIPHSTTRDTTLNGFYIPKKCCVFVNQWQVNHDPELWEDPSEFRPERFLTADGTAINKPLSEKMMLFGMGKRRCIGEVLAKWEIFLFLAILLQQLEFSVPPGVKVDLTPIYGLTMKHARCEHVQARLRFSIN

For `N#Cc1cnc(Nc2cc(NCC3CNCCO3)c(C(F)(F)F)cn2)cn1` (stereo not drawn) [SRA737, 5-[[4-[[morpholin-2-yl]methylamino]-5-(trifluoromethyl)-2-pyridyl]amino]pyrazine-2-carbonitrile], the antitumor activity [1] was “Significant antitumor activity”, the IC50 [2] was 10 to 50 µM and the single agent efficacy [3] was “single agent efficacy”. For the same compound, the antitumor activity ([4]; in combination with standard-dose gemcitabine) was “Significant, dose-dependent antitumor activity”, the synergy ([4]; with irinotecan) was “Synergy” and the synergy ([4]; with low-dose gemcitabine) was “Synergy”. For the same compound, the parent remained [5] was 75%, the “Percentage Bound” value ([6]; 1 μM) was 85.2% and the “Percentage Free” value ([6]; 1 μM) was 14.9%. For the same compound, the “Percentage Bound” value ([6]; 10 μM) was 75.5%, the “Percentage Free” value ([6]; 10 μM) was 24.5% and the fraction unbound ([6]; plasma, minipig, summary of 1 and 10 μM) was ~0.2. The IC50 [7] was 10 to 50 µM, the IC50 [8] was 10 to 50 µM and the “maximum tolerated dose (MTD)” value ([9]; BID) was 500 mg. For the same compound, the “maximum tolerated dose (MTD)” value ([9]; QD, continuous daily oral dosing) was 1000 mg, the “dose-limiting toxicities (DLTs)” value ([9]; human, in vivo) was “without any dose-limiting toxicities” and the “doses that exceeded the level determined in preclinical models to be effective” value ([9]; human, in vivo) was ≥ 300 mg. The Cmax ([9]; human, in vivo, 20 mg) was 29.0 ng/mL, the Cmax ([9]; human, in vivo, 20 mg, Cmax) was 43 ng/mL and the half-life ([9]; human, in vivo, 20 mg, T1/2) was 17.6 h. The AUC0-24 ([9]; human, in vivo, 40 mg) was 1,006 ng · h/mL, the Cmax ([9]; human, in vivo, 40 mg) was 75.9 ng/mL and the T1/2 ([9]; human, in vivo, 40 mg) was 16.8 h. The Tmax ([9]; human, in vivo, 40 mg) was 2.0 h, the AUC(0-t) ([9]; human, in vivo, 40 mg) was 809 ng·h/mL and the Cmax ([9]; human, in vivo, 40 mg, Cmax) was 95 ng/mL. The half-life ([9]; human, in vivo, 40 mg, T1/2) was 9.85 h, the Tmax ([9]; human, in vivo, 40 mg, Tmax) was 1 h and the AUC0-24 ([9]; human, in vivo, 80 mg) was 1,064 ng · h/mL. It also gave a Cmax ([9]; human, in vivo, 80 mg) of 81.4 ng/mL, a T1/2 ([9]; human, in vivo, 80 mg) of 15.6 h and a Tmax ([9]; human, in vivo, 80 mg) of 2.0 h. It also gave an AUC(0-t) ([9]; human, in vivo, 80 mg) of 691 ng·h/mL, a Cmax ([9]; human, in vivo, 80 mg, Cmax) of 68.9 ng/mL and a half-life ([9]; human, in vivo, 80 mg, T1/2) of 9.27 h. For the same compound, the Tmax ([9]; human, in vivo, 80 mg, Tmax) was 4 h, the AUC0-24 ([9]; human, in vivo, 160 mg) was 2,515 ng · h/mL and the Cmax ([9]; human, in vivo, 160 mg) was 217 ng/mL. It also gave a T1/2 ([9]; human, in vivo, 160 mg) of 19.8 h, a Tmax ([9]; human, in vivo, 160 mg) of 2.0 h and an AUC(0-t) ([9]; human, in vivo, 160 mg) of 1620 ng·h/mL. The Cmax ([9]; human, in vivo, 160 mg, Cmax) was 178 ng/mL, the half-life ([9]; human, in vivo, 160 mg, T1/2) was 13.8 h and the Tmax ([9]; human, in vivo, 160 mg, Tmax) was 4 h. For the same compound, the AUC0-24 ([9]; human, in vivo, 300 mg) was 2,362 ng · h/mL, the T1/2 ([9]; human, in vivo, 300 mg) was 15.4 h and the Tmax ([9]; human, in vivo, 300 mg) was 6.0 h. The AUC(0-t) ([9]; human, in vivo, 300 mg) was 3150 ng·h/mL, the half-life ([9]; human, in vivo, 300 mg, T1/2) was 8.59 h and the Tmax ([9]; human, in vivo, 300 mg, Tmax) was 4 h. For the same compound, the AUC0-24 ([9]; human, in vivo, 600 mg) was 12,850 ng · h/mL, the Cmax ([9]; human, in vivo, 600 mg) was 1,381 ng/mL and the T1/2 ([9]; human, in vivo, 600 mg) was 10.4 h. It also gave a Tmax ([9]; human, in vivo, 600 mg) of 2.9 h, an AUC(0-t) ([9]; human, in vivo, 600 mg) of 8870 ng·h/mL and a Cmax ([9]; human, in vivo, 600 mg, Cmax) of 998 ng/mL. The half-life ([9]; human, in vivo, 600 mg, T1/2) was 12.9 h, the Tmax ([9]; human, in vivo, 600 mg, Tmax) was 1.8 h and the AUC0-24 ([9]; human, in vivo, 800 mg) was 25,423 ng · h/mL. For the same compound, the Cmax ([9]; human, in vivo, 800 mg) was 2,573 ng/mL, the T1/2 ([9]; human, in vivo, 800 mg) was 10.0 h and the Tmax ([9]; human, in vivo, 800 mg) was 2.5 h. For the same compound, the AUC(0-t) ([9]; human, in vivo, 800 mg) was 18900 ng·h/mL, the Cmax ([9]; human, in vivo, 800 mg, Cmax) was 1980 ng/mL and the half-life ([9]; human, in vivo, 800 mg, T1/2) was 10.3 h. It also gave a Tmax ([9]; human, in vivo, 800 mg, Tmax) of 3.3 h, a T1/2 ([9]; human, in vivo, 1000 mg) of 9.38 h and a Tmax ([9]; human, in vivo, 1000 mg) of 3.1 h. For the same compound, the AUC(0-t) ([9]; human, in vivo, 1000 mg) was 26800 ng·h/mL, the Cmax ([9]; human, in vivo, 1000 mg, Cmax) was 2390 ng/mL and the half-life ([9]; human, in vivo, 1000 mg, T1/2) was 11 h. For the same compound, the Tmax ([9]; human, in vivo, 1000 mg, Tmax) was 3.3 h, the AUC(0-t) ([9]; human, in vivo, 1300 mg) was 29800 ng·h/mL and the Cmax ([9]; human, in vivo, 1300 mg, Cmax) was 3230 ng/mL. It also gave a half-life ([9]; human, in vivo, 1300 mg, T1/2) of 11.8 h, a Tmax ([9]; human, in vivo, 1300 mg, Tmax) of 2.7 h and a half-life ([9]; human, in vivo, half-life) of ~10 h. For the same compound, the single agent efficacy [10] was “single agent efficacy”, the single agent efficacy [11] was “single agent efficacy” and the antitumor activity [12] was “Significant, dose-dependent antitumor activity”.
